# Measured values from PMC7139549, “TLD1433 Photosensitizer Inhibits Conjunctival Melanoma Cells in Zebrafish Ectopic and Orthotopic Tumour Models” (Cancers, 2020).
# Assays:
# [1] = tested on: CRMM1 cells injected behind the eye (RO) of zebrafish embryos; experiment: Zebrafish orthotopic CM tumour model, CRMM1; type: in vivo, Zebrafish (Danio rerio); details: for PI (Fluorescence Intensity) / PI (Tumour Area) / Relative Tumour Burden as Measured by Fluorescence Intensity / Tumour Area: CRMM1, Orthotopic Model; for PI (Fluorescence Intensity) / PI (Tumour Area): 0 vs 114 J.cm^−2
# Protocol: The zebrafish ectopic conjunctival melanoma tumour model has been described previously. In this model, around 200 fluorescent CM cells are injected into the Duct of Cuvier at 2 dpf, and then disseminate through the blood circulation and grow in the head and tail. To establish the orthotopic tumour model, around 100 red, (td)Tomato fluorescent CRMM1 or CRMM2 cells were injected RO at 2 dpf into tg(Fli:GFP/Casper), endothelial reporter transgenic zebrafish with green fluorescent vasculature and examined by fluorescent microscopy at day 1 and 4 after engraftment (Figure 6A). Tumour expansion at the injection site was measured as fluorescence intensity and tumour area.
# For cancer cell injection, two days post-fertilization (dpf), dechorionated zebrafish embryos were anaesthetized with 0.003% tricaine (Sigma) and plated on a 10 cm Petri dish covered with 1.5% of solidified agarose. CRMM1 and CRMM2 cells were suspended in PBS containing 2% polyvinylpyrrolidone (PVP; Sigma-Aldrich) with a concentration of 50,000 cells/µL and loaded into borosilicate glass capillary needles (1 mm O.D. × 0.78 mm I.D.; Harvard Apparatus). In the ectopic model, 200 (td)Tomato fluorescent CM cells were injected into the Duct of Cuvier or at 2 dpf, which led to dissemination through the blood circulation and outgrowth in the head and tail. In orthotopic tumour model, 100 (td)Tomato fluorescent CRMM1 or CRMM2 cells were injected RO in 2 dpf embryos using a Pneumatic Picopump and a manipulator (WPI). After injection, the embryos were incubated in a 34 °C incubator. Images were acquired at 1-, 2- and 4-days post injection (dpi) with a Leica M165 FC stereo fluorescence microscope. Tumor growth was quantified by calculating the total fluorescence intensity and area with the ZF4 pixel counting program (Leiden). Each experiment was performed at least 3 times with a group size of >30 embryos.
# Fluorescent CRMM1 and CRMM2 cells were injected at 2 dpf into the Duct of Cuvier (ectopic model) and behind the eye (orthotopic model) and TLD1433 was delivered by WA, IV and RO administration with or without a light treatment as described in 4.8. For the WA administration, the 4.6 nM TLD1433 solution was added to the tumour cells injected zebrafish at 2.5, 3.5, 4.5, 5.5 dpf and maintained for 12 h. At 3, 4, 5, 6 dpf, the fish water was refreshed, and after 1 h, embryos were exposed to green light for 90 min (21 mW/cm^2, 114 J/cm^2, 520 nm). For the IV and RO administration, 1 nL of 2.3 mM TLD1433 solution was injected via the dorsal vein or the RO site at 3, 4, 5, 6 dpf. After 1 h interval, the embryos were exposed to green light for 90 min (21 mW/cm^2, 114 J/cm^2, 520 nm). After treatment, the embryos images were acquired with a Leica M165 FC stereo fluorescence microscope. Tumor growth was quantified by calculating the total fluorescence intensity and area with the ZF4 pixel counting program (Leiden). Each experiment was performed at least 3 times with a group size of >30 embryos.
# [2] = tested on: CRMM2 engrafted cells in zebrafish orthotopic model; experiment: In situ TUNEL assay, CRMM2 orthotopic zebrafish model; type: in vivo, Zebrafish (Danio rerio); details: RO 2.3 mM
# Protocol: In situ TUNEL assay on fixed embryos was used to detect TLD1433 induced apoptosis in zebrafish CRMM1 and CRMM2 orthotopic tumour models at 4 dpi after light activation of 2.3 mM TLD1433, administrated by retro orbital injection. The DNA strand breaks in apoptotic tumour cells were stained with fluorescein and visualized as a green signal.
# Figure 10 TUNEL assay of in CRMM1 and CRMM2 orthotopic model after RO of TLD1433. Red fluorescent CRMM1 (A) and CRMM2 (B) cells were injected at 2dpf behind the ZF eye and divided into four groups for drug treatment. RO administration of vehicle control and TLD1433 was performed as described in Figure 9C,E. After dark or light exposure (21 mW/cm^2, 114 J.cm^−2, 520 nm) embryos were fixed and TUNEL staining was performed. Representative images of embryos are shown in this figure. (A,B) In TLD1433 light groups nuclear DNA fragmentation by nucleases is detected by co-localization of green (DNA fragments) and red signal of engrafted CM cells, depicted as yellow signal and marked by white arrows. In control dark, control light, TLD1433 dark, there are no positive green apoptotic tumour cells observed. […] Experiment was performed 3 times with a group size of 10 embryos.
# The zebrafish larvae were fixed overnight with 4% PFA at 4 °C. Embryos were washed in PBST for 5 min and dehydrated by a graded methanol series until reaching 100% methanol. […]
# [3] = Intravenous (1 nL of 2.3 mM), Light Dose 0 J.cm^−2, vs control dark group (100%)
# [4] = Intravenous (1 nL of 2.3 mM), Light Dose 114 J.cm^−2, vs control dark group (100%)
# [5] = Water (4.6 nM), Light dose 0 J.cm^−2, vs control dark group (100%)
# [6] = Water (4.6 nM), Light dose 114 J.cm^−2, vs control dark group (100%)
# [7] = CRMM1, orthotopic model, RO 2.3 mM, green light 114 J.cm^−2
compound,measurement,setting,value
Cc1ccnc(-c2cc(C)ccn2)c1.Cc1ccnc(-c2cc(C)ccn2)c1.[Cl-].[Cl-].[Ru+2].c1csc(-c2ccc(-c3ccc(-c4nc5c6cccnc6c6ncccc6c5[nH]4)s3)s2)c1 [TLD1433],PI (Fluorescence Intensity),[1]; Intravenous (1 nL of 2.3 mM),0.82
same,PI (Tumour Area),[1]; Intravenous (1 nL of 2.3 mM),0.87
same,Relative Tumour Burden as Measured by Fluorescence Intensity,[1]; [3],91%
same,Tumour Area,[1]; [3],109%
same,Relative Tumour Burden as Measured by Fluorescence Intensity,[1]; [4],111%
same,Tumour Area,[1]; [4],126%
same,PI (Tumour Area),[1]; Retro orbital (1 nL of 2.3 mM),4.1
same,Tumour Area,"[1]; Retro orbital (1 nL of 2.3 mM), Light dose 0 J.cm^−2, vs control dark group (100%)",125%
same,Tumour Area,"[1]; Retro orbital (1 nL of 2.3 mM), Light dose 114 J.cm^−2, vs control dark group (100%)",31%
same,PI (Fluorescence Intensity),[1]; Retro-orbital (1 nL of 2.3 mM),1.8
same,Relative Tumour Burden as Measured by Fluorescence Intensity,"[1]; Retro-orbital (1 nL of 2.3 mM), Light Dose 0 J.cm^−2, vs control dark group (100%)",120%
same,Relative Tumour Burden as Measured by Fluorescence Intensity,"[1]; Retro-orbital (1 nL of 2.3 mM), Light Dose 114 J.cm^−2, vs control dark group (100%)",65%
same,PI (Fluorescence Intensity),[1]; Water (4.6 nM),1.0
same,PI (Tumour Area),[1]; Water (4.6 nM),1.0
same,Relative Tumour Burden as Measured by Fluorescence Intensity,[1]; [5],96%
same,Tumour Area,[1]; [5],90%
same,Relative Tumour Burden as Measured by Fluorescence Intensity,[1]; [6],96%
same,Tumour Area,[1]; [6],89%
same,diminished fluorescence intensity,[1]; [7],35%
same,diminished tumour area,[1]; [7],69%
same,effect on tumour burden (in words),"[1]; CRMM1, orthotopic model, WA at the MTD (4.6 nM), light 114 J.cm^−2",did not inhibit tumour burden
same,TUNEL apoptosis of engrafted cells (in words),"[2]; dark, 4 dpi",no positive green signal detected
same,TUNEL apoptosis of engrafted cells (in words),"[2]; light 114 J.cm^−2, 4 dpi",induced CRMM1 and CRMM2 cell apoptosis
